Assay results taken from patent US12528811B2, “Substituted cyclopenta[2,1-b:5,1-b’]dipyrroles as Janus kinase (JAK) inhibitors” (UNIVERSITÄT BERN, priority 2019, dated 2026).

Experiments:
Assay type in all cases: biochemical
[1] = target: JAK1 (Homo sapiens, UniProt P23458); experiment: JAK1 enzymatic kinase inhibition assay; conditions: read-out: Kinase inhibitory activities given in IC50 (nM), JAK1
[2] = target: JAK2 (Homo sapiens, UniProt O60674); experiment: JAK2 enzymatic kinase inhibition assay; conditions: read-out: Kinase inhibitory activities given in IC50 (nM), JAK2
Chain of JAK2 (O60674 whole entry): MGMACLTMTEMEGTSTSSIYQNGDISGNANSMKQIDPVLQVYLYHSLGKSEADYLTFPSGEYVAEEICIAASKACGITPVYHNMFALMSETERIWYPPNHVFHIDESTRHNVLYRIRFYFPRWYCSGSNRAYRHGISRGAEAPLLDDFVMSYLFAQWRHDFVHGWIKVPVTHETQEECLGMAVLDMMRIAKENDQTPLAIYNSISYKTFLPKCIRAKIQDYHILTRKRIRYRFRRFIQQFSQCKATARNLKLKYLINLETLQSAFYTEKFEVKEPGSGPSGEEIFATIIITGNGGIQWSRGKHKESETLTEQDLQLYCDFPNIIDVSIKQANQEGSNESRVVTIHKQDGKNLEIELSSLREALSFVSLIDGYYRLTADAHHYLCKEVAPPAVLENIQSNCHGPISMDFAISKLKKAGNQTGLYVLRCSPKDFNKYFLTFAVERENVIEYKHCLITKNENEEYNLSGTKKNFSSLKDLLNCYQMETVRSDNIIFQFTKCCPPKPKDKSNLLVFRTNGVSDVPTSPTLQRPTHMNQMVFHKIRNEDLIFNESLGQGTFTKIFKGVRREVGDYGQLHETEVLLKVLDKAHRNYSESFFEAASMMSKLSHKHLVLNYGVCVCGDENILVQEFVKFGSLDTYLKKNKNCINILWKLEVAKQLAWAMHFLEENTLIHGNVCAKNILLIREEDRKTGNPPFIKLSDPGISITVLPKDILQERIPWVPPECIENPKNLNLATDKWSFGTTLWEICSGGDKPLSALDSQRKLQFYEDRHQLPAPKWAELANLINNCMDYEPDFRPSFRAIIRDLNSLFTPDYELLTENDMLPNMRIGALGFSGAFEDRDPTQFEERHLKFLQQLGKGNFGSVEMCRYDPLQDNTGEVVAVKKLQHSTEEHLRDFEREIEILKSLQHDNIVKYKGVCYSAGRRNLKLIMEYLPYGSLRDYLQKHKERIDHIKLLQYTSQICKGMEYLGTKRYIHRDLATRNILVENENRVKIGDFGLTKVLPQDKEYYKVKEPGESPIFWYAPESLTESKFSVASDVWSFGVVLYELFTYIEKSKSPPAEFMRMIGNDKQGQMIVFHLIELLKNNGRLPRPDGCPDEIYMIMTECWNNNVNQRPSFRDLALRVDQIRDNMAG

[3] = target: T1, JAK3 (Homo sapiens, UniProt P52333); experiment: JAK3 enzymatic kinase inhibition assay; conditions: read-out: Kinase inhibitory activities given in IC50 (nM), JAK3
T1 sequence (P52333 1-1124): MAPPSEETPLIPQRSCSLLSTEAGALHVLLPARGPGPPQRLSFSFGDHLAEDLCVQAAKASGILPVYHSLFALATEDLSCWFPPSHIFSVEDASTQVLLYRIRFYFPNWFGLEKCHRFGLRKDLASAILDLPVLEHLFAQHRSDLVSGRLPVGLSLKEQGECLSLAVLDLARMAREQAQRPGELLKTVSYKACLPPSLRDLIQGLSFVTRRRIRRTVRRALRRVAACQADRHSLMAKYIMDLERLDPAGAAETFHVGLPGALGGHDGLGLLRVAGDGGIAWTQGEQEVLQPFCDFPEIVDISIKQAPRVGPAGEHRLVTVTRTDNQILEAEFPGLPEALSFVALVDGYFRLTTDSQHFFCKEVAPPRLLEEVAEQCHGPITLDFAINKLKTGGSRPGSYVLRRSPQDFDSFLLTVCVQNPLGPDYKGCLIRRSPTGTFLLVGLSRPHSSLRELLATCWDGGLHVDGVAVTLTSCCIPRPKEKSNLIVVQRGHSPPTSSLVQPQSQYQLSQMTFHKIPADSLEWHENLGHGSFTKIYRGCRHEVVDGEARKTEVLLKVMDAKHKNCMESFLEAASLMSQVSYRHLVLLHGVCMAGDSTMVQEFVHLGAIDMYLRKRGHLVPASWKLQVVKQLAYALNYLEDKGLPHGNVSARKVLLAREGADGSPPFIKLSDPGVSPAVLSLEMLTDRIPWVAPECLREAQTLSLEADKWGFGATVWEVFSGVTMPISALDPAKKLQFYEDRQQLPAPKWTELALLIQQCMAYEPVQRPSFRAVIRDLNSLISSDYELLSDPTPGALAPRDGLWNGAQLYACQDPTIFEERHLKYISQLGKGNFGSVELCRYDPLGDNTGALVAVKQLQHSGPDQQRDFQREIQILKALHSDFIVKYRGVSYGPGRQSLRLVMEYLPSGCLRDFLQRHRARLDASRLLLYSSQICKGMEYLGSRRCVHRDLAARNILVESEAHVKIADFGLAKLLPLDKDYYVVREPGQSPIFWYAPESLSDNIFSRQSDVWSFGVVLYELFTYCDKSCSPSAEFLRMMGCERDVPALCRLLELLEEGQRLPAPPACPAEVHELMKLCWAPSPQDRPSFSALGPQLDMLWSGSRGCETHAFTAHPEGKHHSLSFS

[4] = target: TYK2 (Homo sapiens, UniProt P29597); experiment: TYK2 enzymatic kinase inhibition assay; conditions: read-out: Kinase inhibitory activities given in IC50 (nM), TYK2
Chain of TYK2 (P29597 whole entry): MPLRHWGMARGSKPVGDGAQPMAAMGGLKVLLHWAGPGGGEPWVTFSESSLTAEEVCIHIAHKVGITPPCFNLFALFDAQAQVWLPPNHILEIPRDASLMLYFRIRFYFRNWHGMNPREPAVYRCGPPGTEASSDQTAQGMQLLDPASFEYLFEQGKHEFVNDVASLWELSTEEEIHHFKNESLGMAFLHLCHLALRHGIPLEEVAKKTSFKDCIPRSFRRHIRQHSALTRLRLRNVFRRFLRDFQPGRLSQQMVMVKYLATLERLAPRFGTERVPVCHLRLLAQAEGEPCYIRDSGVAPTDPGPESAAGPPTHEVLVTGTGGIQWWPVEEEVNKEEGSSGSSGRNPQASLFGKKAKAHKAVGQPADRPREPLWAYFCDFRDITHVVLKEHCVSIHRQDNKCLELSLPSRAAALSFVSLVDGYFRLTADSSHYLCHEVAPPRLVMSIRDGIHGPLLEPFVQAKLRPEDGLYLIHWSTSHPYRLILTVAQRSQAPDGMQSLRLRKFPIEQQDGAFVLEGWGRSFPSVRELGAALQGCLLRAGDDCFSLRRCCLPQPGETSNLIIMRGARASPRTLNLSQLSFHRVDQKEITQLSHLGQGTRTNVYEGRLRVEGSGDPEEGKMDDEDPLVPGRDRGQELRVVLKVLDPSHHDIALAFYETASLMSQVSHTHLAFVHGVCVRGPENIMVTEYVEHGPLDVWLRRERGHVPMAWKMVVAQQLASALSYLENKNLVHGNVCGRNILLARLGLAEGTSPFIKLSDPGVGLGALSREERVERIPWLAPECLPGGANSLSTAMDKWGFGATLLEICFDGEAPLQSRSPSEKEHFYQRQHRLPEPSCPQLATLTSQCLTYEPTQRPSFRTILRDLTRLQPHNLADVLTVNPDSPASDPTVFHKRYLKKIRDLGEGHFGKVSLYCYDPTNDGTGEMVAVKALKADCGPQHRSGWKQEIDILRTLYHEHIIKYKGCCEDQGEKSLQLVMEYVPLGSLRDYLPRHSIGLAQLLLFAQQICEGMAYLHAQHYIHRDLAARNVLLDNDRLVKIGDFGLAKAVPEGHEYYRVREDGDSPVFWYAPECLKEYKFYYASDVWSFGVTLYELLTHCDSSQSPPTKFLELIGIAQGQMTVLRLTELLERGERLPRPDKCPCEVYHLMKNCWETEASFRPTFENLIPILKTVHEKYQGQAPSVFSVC

Chain of JAK1 (P23458 whole entry): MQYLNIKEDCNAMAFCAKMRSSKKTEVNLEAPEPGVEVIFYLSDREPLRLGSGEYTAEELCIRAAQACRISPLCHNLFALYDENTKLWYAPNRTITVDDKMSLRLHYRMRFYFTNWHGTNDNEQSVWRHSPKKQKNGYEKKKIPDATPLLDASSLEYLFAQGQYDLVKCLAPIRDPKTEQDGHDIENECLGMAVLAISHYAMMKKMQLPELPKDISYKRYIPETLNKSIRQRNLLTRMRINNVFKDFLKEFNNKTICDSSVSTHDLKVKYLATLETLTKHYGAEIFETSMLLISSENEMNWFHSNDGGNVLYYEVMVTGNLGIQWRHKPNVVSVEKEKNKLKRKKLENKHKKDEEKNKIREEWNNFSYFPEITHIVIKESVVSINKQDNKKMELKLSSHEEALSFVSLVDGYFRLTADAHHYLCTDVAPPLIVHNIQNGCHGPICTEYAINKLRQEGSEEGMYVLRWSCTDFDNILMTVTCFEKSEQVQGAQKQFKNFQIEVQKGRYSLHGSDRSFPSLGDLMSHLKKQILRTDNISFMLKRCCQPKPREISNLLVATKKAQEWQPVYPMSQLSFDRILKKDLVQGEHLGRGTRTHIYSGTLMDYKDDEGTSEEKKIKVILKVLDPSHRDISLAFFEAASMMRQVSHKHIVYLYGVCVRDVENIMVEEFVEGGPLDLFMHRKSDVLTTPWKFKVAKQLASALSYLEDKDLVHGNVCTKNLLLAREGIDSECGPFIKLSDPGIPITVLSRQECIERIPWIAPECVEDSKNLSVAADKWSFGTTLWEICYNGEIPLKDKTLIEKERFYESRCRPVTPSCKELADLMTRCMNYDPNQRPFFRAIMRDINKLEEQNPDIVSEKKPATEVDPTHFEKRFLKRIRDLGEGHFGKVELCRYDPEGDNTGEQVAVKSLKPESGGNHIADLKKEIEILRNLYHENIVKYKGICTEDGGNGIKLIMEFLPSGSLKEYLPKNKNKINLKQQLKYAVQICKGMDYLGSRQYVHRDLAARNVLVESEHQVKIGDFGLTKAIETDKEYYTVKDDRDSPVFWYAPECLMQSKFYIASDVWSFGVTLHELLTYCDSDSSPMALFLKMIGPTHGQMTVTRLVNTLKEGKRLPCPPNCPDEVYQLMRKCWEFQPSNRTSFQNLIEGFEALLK

Structure (SMILES) | IC50 [1] [nM] | IC50 [2] [nM] | IC50 [3] [nM] | IC50 [4] [nM]
N#CCC(=O)N1CCC23CCN(c4ncnc5[nH]ccc45)C2CCC13 (centres unmarked) [KMC420, 3-(6-(7H-pyrrolo[2,3-d]pyrimidin-4-yl)octahydrocyclopenta[2,1-b:5,1-b′]dipyrrol-3(3aH)-yl)-3-oxopropanenitrile] | 1 | 13 | 29 | 26
C=CC(=O)N1CCC23CCN(c4ncnc5[nH]ccc45)C2CCC13 (centres unmarked) [KMC423, 1-(6-(7H-pyrrolo[2,3-d]pyrimidin-4-yl)octahydrocyclopenta[2,1-b:5,1-b′]dipyrrol-3(3aH)-yl)prop-2-en-1-one] | 30 | 53 | 9 | 183
